In general, IC50 refers to the concentration that gives 50% inhibition.

These results are taken from patent publication US6084120A, “β-Alkoxyacrylates against malaria” (Hoffmann-La Roche Inc., priority 1997, dated 2000).

Data set [1] relates to human-pathogenic Plasmodium falciparum strain NF54. The data set can be described thus: Growth inhibition of Plasmodium falciparum in vitro, strain NF54 (chloroquine-sensitive), [G-3H]-hypoxanthin incorporation. Format: cell-based. The following applies: 72 h, read-out: in vitro strain NF 54 IC50 (growth inhibition) (converted). How it is done: (§1) Test method for the determination of the activity against Plasmodium falciparum in vitro
(§2) The preparations are tested on intraerythrocytary stages of Plasmodium falciparum from asynchronous cultures according to the method of Desjardin et al. (Desjardins, R. E. et al: Quantitative assessment of antimalarial activity in vitro by a semiautomated microdilution technique. Antimicrob. Agents Chemother. 16, 710-718, (1979)).
(§3) The culture medium consists of RPMI 1640 with the addition of 25 mM HEPES, 25 mM NaHCO3, 100 μg/ml neomycin and 10% human serum (A^+). Human-A^+ erythrocytes are used as the Plasmodium falciparum host cells. The parasites are maintained at 37° C. in an atmosphere of 3% O2, 4% CO2, 93% N2 and 95% relative humidity.
(§4) In order to determine the activity, the preparations are dissolved in DMSO, pre-diluted in the culture medium to a suitable starting concentration and subsequently titrated-out on to microtitre plates in the 2nd stage over 6-7 steps. After the addition of the parasite culture (0.7% parasitemia in 2.5% erythrocyte suspension) the test plates are incubated under the conditions given above for 72 h. The parasite growth in the different preparation concentrations is determined using [G-^3 H]-hypoxanthin incorporation compared to untreated control cultures on the same test plates. The 50% growth inhibition (IC50) is calculated according to logit regression analysis from the resulting dosage-activity curve.
(§5) The preparations are tested on at least one chloroquine-resistant and one chloroquine-sensitive Plasmodium falciparum strain. Additional sensitive and resistant strains are included for further characterization.

Data set [2] relates to human-pathogenic Plasmodium falciparum K1. The data set can be described thus: Growth inhibition of Plasmodium falciparum in vitro, strain K1 (chloroquine-resistant), [G-3H]-hypoxanthin incorporation. Format: cell-based. The following applies: 72 h. How it is done:
as §1, §2, §3, §4, §5

For data set [3], the system named is Plasmodium berghei (strain ANKA). The data set can be described thus: Activity against Plasmodium berghei in vivo, reduction of parasitemia in infected mice. The following applies: for inhibition in vivo at 10 mg/kg / inhibition in vivo at 100 mg/kg: Plasmodium berghei, 48 h after treatment; for inhibition in vivo at 10 mg/kg: single dose 10 mg/kg; for inhibition in vivo at 100 mg/kg / in vivo sc act. % (toxic): single dose 100 mg/kg. How it is done: Test method for the determination of the activity against Plasmodium berghei in vivo
The preparations are tested on mice infected with malaria pathogens (Plasmodium berghei). Male albino mice (IBM:MORO(SPF), FUELLINSDORF) weighing about 25 g are used as the test animals. They are kept in climatized rooms at 21-22° C. in groups of 5 animals per cage. They receive ad libitum a diet feed with a low PABA content (NAFAG FUTTER" No. 9009 PAB-45, PABA content 45 mg/kg) and drinking water. On the first day of the test (D0) the test animals are infected with Plasmodium berghei (strain ANKA). For this there is used heparinized blood of a donor mouse with about 30% parasitemia, which is diluted with physiological saline such that it contains 10^8 parasitized erythrocytes per ml. 0.2 ml of this suspension is injected intravenously (i.v.) into the mice to be treated and into the control mice. In untreated control animals the parasitemia normally reaches 30-40% on the third day after the infection (D+3) and the test animals die between days +5 and +7.
The substances to be tested are dissolved or suspended in distilled water or in a mixture of 7% Tween 80, 3% alcohol (96%) and water. Usually, 0.25 ml of this solution or suspension is administered once subcutaneously and perorally to groups of 5 test animals. Treatment is effected 24 hours after the infection. 10 control animals are treated in the same manner with solvent or suspension medium per test.
All substances are tested in a first test in a single dosage of 100 or 10 mg/kg. Only those substances which in this test (10 mg/kg) have shown a parasitaemia reduction of more than 90% are used for the titration. Suitable dilutions of the test substance can be used to obtain an accurate titration of the activity.
48 hours after the treatment (D+3) blood smears are prepared from all animals using blood from tail veins and are stained with giemsa. The average erythrocyte infection rate (parasitemiea in %) in the control groups as well as in the groups which have been treated with the test compounds is determined by counting under a microscope. The difference in the average values of the infection rates of control group (100%) and treated groups is calculated and expressed as a percentage reduction (GI%). The ED50 or ED90 is determined mathematically by means of the JMP programme (nonlinear fit). The ED50 (ED90) in mg/kg is that dose which after single administration reduces the average erythrocyte infection rate by 50% (90%) in comparison to the control group.

Setting [4] is: po, perorally, read-out: in vivo po act. % (percentage reduction of the parasitemia).
Setting [5] is: sc, subcutaneously, read-out: in vivo sc act. % (percentage reduction of the parasitemia).

≈ marks a conversion by molar mass, not a printed value. Like-named read-outs stand apart in the source and are kept apart here.

For `COC=C(C(=O)OC)c1ccccc1C=CC=Cc1ccc(C(F)(F)F)cc1C(F)(F)F` [Example 199, (E)- or (Z)-2-[2-[4-(2,4-bis-trifluoromethyl-phenyl)-buta-1,3-dienyl]phenyl]-3-methoxy-acrylic acid methyl ester], the IC50 is 0.06 µg/mL (≈ 0.131 µM) in data set [1] and 0.13 µg/mL (≈ 0.285 µM) in data set [2]. The inhibition in vivo at 10 mg/kg in data set [3] (setting [4]) was found to be 100%. In addition, in data set [3] (setting [5]), the inhibition in vivo at 100 mg/kg came out at 100%.

In the case of `CO/C=C(/C(=O)OC)c1ccccc1/C=C/C=C/c1ccccc1Br` [Example 203, Methyl (E)-2-[o-[(all-E)-4-(o-bromophenyl)-1,3-butadienyl]phenyl]-3-methoxyacrylate], the values for the IC50 in data set [1] and in data set [2] were 0.07 µg/mL (≈ 0.175 µM) and 0.28 µg/mL (≈ 0.701 µM), respectively. For the same molecule, in data set [3] (setting [4]), the inhibition in vivo at 10 mg/kg was found to be 76%. Moreover, the inhibition in vivo at 100 mg/kg in data set [3] (setting [5]) turned out to be 90%.

Take `CO/C=C(/C(=O)OC)c1csc2cccc(/C=C/c3ccccc3)c12` [Example 241]: the IC50 in data set [1] was 1.4 µg/mL (≈ 3.99 µM); in data set [2], 7.4 µg/mL (≈ 21.1 µM).

With `CO/C=C(/C(=O)OC)c1csc2cccc(CN(C)[C@@H](C)c3ccccc3)c12` [Example 222], the IC50 in data set [1] was 22.6 µg/mL (≈ 57.1 µM); in data set [2] it was 64.3 µg/mL (≈ 163 µM).

On to `CO/C=C(/C(=O)OC)c1ccccc1/C=C/CSc1ccccc1C(F)(F)F` [Example 120], for which the IC50 in data set [1] was 1.75 µg/mL (≈ 4.28 µM); in data set [2], 2.51 µg/mL (≈ 6.15 µM). In addition, the inhibition in vivo at 100 mg/kg turned out to be 46% in data set [3] (setting [4]) and 91% in data set [3] (setting [5]).

As for `CO/N=C(/C(=O)OC)c1ccccc1CO/N=C(\C)c1cc(C(F)(F)F)cc(C(F)(F)F)c1` [Example 111], the IC50 in data set [1] is 1.6 µg/mL (≈ 3.36 µM); in data set [2], 4.3 µg/mL (≈ 9.03 µM).

For the molecule `CO/C=C(/C(=O)OC)c1ccccc1/C=C/c1cc(OC)c(OC)cc1[N+](=O)[O-]` [Example 126], the IC50 in data set [1] was 1.2 µg/mL (≈ 3 µM); in data set [2], 3.3 µg/mL (≈ 8.26 µM). Moreover, the results for the inhibition in vivo at 100 mg/kg in data set [3] (setting [4]) and in data set [3] (setting [5]) were 79% and 76%, respectively.

For `CO/C=C(/C(=O)OC)c1csc2c(C)cccc12` [Example 250], the figures for the IC50 in data set [1] and in data set [2] were 184 µg/mL (≈ 703 µM) and 550 µg/mL (≈ 2100 µM), respectively.

Regarding `CO/C=C(/C(=O)OC)c1ccccc1/C=C/C=C/c1ccccc1C(F)(F)F` [Example 185, Methyl (E)-3-methoxy-2-[o-[(all-E)-4-(alpha,alpha,alpha-trifluoro-tolyl)-1,3-butadienyl]-phenl]acrylate], the IC50 in data set [1] was 0.06 µg/mL (≈ 0.154 µM); in data set [2], 0.15 µg/mL (≈ 0.386 µM). For the same molecule, in data set [3] (setting [4]), the inhibition in vivo at 10 mg/kg amounted to 99%. Further, in data set [3] (setting [5]), the inhibition in vivo at 100 mg/kg turned out to be 100%.

Take `CO/N=C(/C(=O)OC)c1ccccc1-c1ccc(-c2ccccc2C(F)(F)F)s1` [Example 217]: the IC50 was 23.7 µg/mL (≈ 56.5 µM) in data set [1] and 60.8 µg/mL (≈ 145 µM) in data set [2].

As for `CO/C=C(/C(=O)OC)c1ccccc1CCCCc1ccccc1C(F)(F)F` [Example 210], the IC50 was 0.85 µg/mL (≈ 2.17 µM) in data set [1] and 1.35 µg/mL (≈ 3.44 µM) in data set [2]. The figures for the inhibition in vivo at 100 mg/kg in data set [3] (setting [4]) and in data set [3] (setting [5]) were 82% and 99%, respectively.

On to `CO/C=C(/C(=O)OC)c1ccccc1CO/N=C(\C)c1cc(C(F)(F)F)cc(C(F)(F)F)c1` [Example 105], for which the IC50 in data set [1] was 0.21 µg/mL (≈ 0.442 µM); in data set [2], 1.01 µg/mL (≈ 2.12 µM).

With `CO/C=C(/C(=O)OC)c1ccccc1CCCCc1ccc(C(F)(F)F)cc1C(F)(F)F` [Example 211], the IC50 is 0.33 µg/mL (≈ 0.717 µM) in data set [1] and 1.34 µg/mL (≈ 2.91 µM) in data set [2]. Further, the inhibition in vivo at 10 mg/kg in data set [3] (setting [4]) was 59%. Further, the inhibition in vivo at 100 mg/kg in data set [3] (setting [5]) was 92%.

Consider `CO/N=C(/C(=O)OC)c1ccccc1C#CC#Cc1ccccc1C(F)(F)F` [Example 207], for which the figures for the IC50 in data set [1] and in data set [2] were 10.8 µg/mL (≈ 28 µM) and 25.8 µg/mL (≈ 67 µM), respectively.

On to `CO/C=C(/C(=O)OC)c1ccccc1/C=C/c1ccc(OC)c(OC)c1Cl` [Example 136], for which the half-maximal inhibitory concentration (IC50) in data set [1] was 1.04 µg/mL (≈ 2.67 µM); in data set [2], 2.9 µg/mL (≈ 7.46 µM). Besides, in data set [3] (setting [4]), the inhibition in vivo at 100 mg/kg turned out to be 40%. The “in vivo sc act. % (toxic)” value in data set [3] (subcutaneously) is listed as “tox”.

For `CO/C=C(/C(=O)OC)c1csc2cccc(/C=C/c3ccsc3)c12` [Example 243], the IC50 in data set [1] is 6.7 µg/mL (≈ 18.8 µM); in data set [2] it was 22.6 µg/mL (≈ 63.4 µM).

For the molecule `CO/N=C(/C(=O)OC)c1ccccc1C#C/C=C/c1ccccc1C(F)(F)F` [Example 209], the IC50 is 3.21 µg/mL (≈ 8.29 µM) in data set [1] and 5.7 µg/mL (≈ 14.7 µM) in data set [2].

With `CO/C=C(/C(=O)OC)c1csc2cccc(CO/N=C(\C)c3cccc(C(F)(F)F)c3)c12` [Example 238], the IC50 in data set [1] was 17.5 µg/mL (≈ 37.8 µM); in data set [2], 40.9 µg/mL (≈ 88.2 µM).

Consider `CON=C(C(=O)OC)c1ccccc1/C=C/C=C/c1ccccc1C(F)(F)F` [Example 206, (Z)- or (E)-Methoxyimino-[2-[(1E,2E)-4-(2-trifluoromethylphenyl)-buta-1,3-dienyl]-phenyl]-acetic acid methyl ester], for which the IC50 in data set [1] was 0.4 µg/mL (≈ 1.03 µM); in data set [2], 1.4 µg/mL (≈ 3.6 µM). The inhibition in vivo at 100 mg/kg in data set [3] (setting [4]) worked out at 46%; in data set [3] (setting [5]), 44%.

In the case of `CO/C=C(/C(=O)OC)c1csc2cccc(COC(=O)Cc3ccc(Cl)cc3Cl)c12` [Example 233], the IC50 was 29.5 µg/mL (≈ 63.4 µM) in data set [1] and 67.3 µg/mL (≈ 145 µM) in data set [2].

Regarding `CO/C=C(/C(=O)OC)c1ccccc1COc1cnc2cc(Br)cc(C)c2n1` [Example 28], the IC50 is 17.7 µg/mL (≈ 39.9 µM) in data set [1] and 19.1 µg/mL (≈ 43.1 µM) in data set [2].

`CO/C=C(/C(=O)OC)c1ccccc1CSc1c(F)c(F)c(F)c(F)c1F` [Example 11]: the IC50 in data set [1] was 1.17 µg/mL (≈ 2.89 µM); in data set [2] it was 4.9 µg/mL (≈ 12.1 µM). In data set [3] (setting [4]), the inhibition in vivo at 100 mg/kg was determined as 80%. In data set [3] (subcutaneously), the “in vivo sc act. % (toxic)” value is recorded as “tox”.

With `CO/C=C(/C(=O)OC)c1ccccc1/C=C/COC1CCCCO1` [Example 251, (E)-3-Methoxy-2-{(E)-2-[(R)- and (S)-3-(tetrahydro-pyran-2-yloxy}-propenyl]-phenyl}-acrylic acid methyl ester], the IC50 was 64.9 µg/mL (≈ 195 µM) in data set [1] and 111 µg/mL (≈ 334 µM) in data set [2]. Also, the values for the inhibition in vivo at 100 mg/kg in data set [3] (setting [4]) and in data set [3] (setting [5]) were 40% and 74%, respectively.

`CO/N=C(/C(=O)OC)c1ccccc1CO/N=C(\C)c1cccc(C(F)(F)F)c1` [Example 110]: the IC50 was 20 µg/mL (≈ 49 µM) in data set [1] and 65.8 µg/mL (≈ 161 µM) in data set [2].

With `CO/C=C(/C(=O)OC)c1csc2cccc(COC(=O)/C=C/c3cccc(C(F)(F)F)c3)c12` [Example 236], the IC50 in data set [1] is 44.2 µg/mL (≈ 92.8 µM); in data set [2], 175 µg/mL (≈ 367 µM).
